Reference: PubChem BioAssay (NCI)
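The compound was tested at five concentrations on cells cultured in 96-well plates, with a 48-hour exposure period. At the GI50, growth is halved. The concentration for full growth arrest is given as TGI.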

How the values were obtained:
Assay in all cases: NCI-60 cell line screen, 48 h
HCT-116 colon = tested on: HCT-116 colon
NCI/ADR-RES ovarian = tested on: NCI/ADR-RES ovarian
PC-3 prostate = tested on: PC-3 prostate
HT29 colon = tested on: HT29 colon
SK-MEL-2 melanoma = tested on: SK-MEL-2 melanoma
786-0 renal = tested on: 786-0 renal
K-562 leukemia = tested on: K-562 leukemia
OVCAR-3 ovarian = tested on: OVCAR-3 ovarian
A498 renal = tested on: A498 renal
SW-620 colon = tested on: SW-620 colon
A549 NSCLC = tested on: A549 NSCLC
NCI-H226 lung = tested on: NCI-H226 lung
M14 melanoma = tested on: M14 melanoma

Q: For COc1ccc(CCNC(=O)[C@H]2CCCC[C@@H]2CCO)cc1OC, which TGI (HCT-116 colon) is on record?
A: > 100 µM

Q: What about the TGI (NCI/ADR-RES ovarian) of the same compound?
A: > 100 µM

Q: What about the TGI (PC-3 prostate) of the same compound?
A: > 100 µM

Q: What about the TGI (HT29 colon) of the same compound?
A: > 100 µM

Q: And the TGI (SK-MEL-2 melanoma)?
A: > 100 µM

Q: What about the TGI (786-0 renal) of the same compound?
A: > 100 µM

Q: What about the TGI (K-562 leukemia) of the same compound?
A: > 100 µM

Q: What about the TGI (OVCAR-3 ovarian) of the same compound?
A: > 100 µM

Q: And the TGI (A498 renal)?
A: > 100 µM

Q: What about the TGI (SW-620 colon) of the same compound?
A: > 100 µM

Q: What about the TGI (A549 NSCLC) of the same compound?
A: > 100 µM

Q: What about the TGI (NCI-H226 lung) of the same compound?
A: > 100 µM

Q: And the TGI (M14 melanoma)?
A: > 100 µM

Q: How did the TGI (HCT-116 colon) turn out when CC(=O)ON(C(C)=O)c1ccc(-c2nc3ccccc3s2)cc1C was run?
A: > 100 µM

Q: And the TGI (NCI/ADR-RES ovarian)?
A: > 100 µM

Q: And the TGI (PC-3 prostate)?
A: > 100 µM

Q: What about the TGI (HT29 colon) of the same compound?
A: > 100 µM

Q: And the TGI (SK-MEL-2 melanoma)?
A: > 100 µM

Q: What about the TGI (786-0 renal) of the same compound?
A: > 100 µM

Q: What about the TGI (K-562 leukemia) of the same compound?
A: > 100 µM

Q: And the TGI (OVCAR-3 ovarian)?
A: > 100 µM

Q: What about the TGI (A498 renal) of the same compound?
A: 16.9 µM

Q: What about the TGI (SW-620 colon) of the same compound?
A: > 100 µM

Q: And the TGI (A549 NSCLC)?
A: > 100 µM

Q: And the TGI (NCI-H226 lung)?
A: > 100 µM

Q: What about the TGI (M14 melanoma) of the same compound?
A: > 100 µM

Q: What does the source list for CCOC(=O)/C(C#N)=C/c1ccc2c(c1)CC1(C2)Cc2cc(CC)c(C(C)O)cc2C1 (configuration not stated)?
A: TGI (HCT-116 colon): 15 µM; TGI (NCI/ADR-RES ovarian): 55.9 µM; TGI (PC-3 prostate): 56.8 µM; TGI (HT29 colon): 39.5 µM; TGI (SK-MEL-2 melanoma): 27.2 µM; TGI (786-0 renal): 39 µM; TGI (K-562 leukemia): > 52.5 µM; TGI (OVCAR-3 ovarian): 22.4 µM; TGI (A498 renal): > 90.4 µM; TGI (SW-620 colon): 22.5 µM; TGI (A549 NSCLC): > 100 µM; TGI (NCI-H226 lung): > 64.6 µM; TGI (M14 melanoma): 16.8 µM

Q: What does the source list for Cc1cc(-c2nc3cccc(F)c3s2)ccc1N?
A: TGI (HCT-116 colon): > 100 µM; TGI (NCI/ADR-RES ovarian): > 100 µM; TGI (PC-3 prostate): > 100 µM; TGI (HT29 colon): > 100 µM; TGI (SK-MEL-2 melanoma): > 100 µM; TGI (786-0 renal): > 100 µM; TGI (K-562 leukemia): > 100 µM; TGI (OVCAR-3 ovarian): > 100 µM; TGI (A498 renal): > 100 µM; TGI (SW-620 colon): > 100 µM; TGI (A549 NSCLC): > 100 µM; TGI (NCI-H226 lung): > 100 µM; TGI (M14 melanoma): > 100 µM

Q: Which results are given for Nc1nc(N)c2nc(CNc3ccc(C(=O)NC(CCCCNC(=O)c4ccccc4C(=O)O)C(=O)O)cc3)cnc2n1 (configuration not stated)?
A: GI50 (HCT-116 colon): 0.000622 µM; TGI (HCT-116 colon): > 100 µM; TGI (NCI/ADR-RES ovarian): > 100 µM; GI50 (PC-3 prostate): 0.000432 µM; TGI (PC-3 prostate): > 100 µM; GI50 (HT29 colon): 0.00566 µM; TGI (HT29 colon): > 100 µM; TGI (SK-MEL-2 melanoma): > 100 µM; TGI (786-0 renal): > 100 µM; TGI (K-562 leukemia): > 100 µM; TGI (OVCAR-3 ovarian): > 100 µM; GI50 (A498 renal): 0.0821 µM; TGI (A498 renal): > 100 µM; GI50 (SW-620 colon): 0.00342 µM; TGI (SW-620 colon): > 100 µM; GI50 (A549 NSCLC): 0.00745 µM; TGI (A549 NSCLC): > 100 µM; TGI (NCI-H226 lung): > 100 µM; TGI (M14 melanoma): > 100 µM

Q: What does the source list for COc1ccccc1CNC(=O)[C@H](Cc1ccc(O)cn1)NC(C)=O?
A: TGI (HCT-116 colon): > 100 µM; TGI (NCI/ADR-RES ovarian): > 100 µM; TGI (PC-3 prostate): > 100 µM; TGI (HT29 colon): > 100 µM; TGI (SK-MEL-2 melanoma): > 100 µM; TGI (786-0 renal): > 100 µM; TGI (K-562 leukemia): > 100 µM; TGI (OVCAR-3 ovarian): > 100 µM; TGI (A498 renal): > 100 µM; TGI (SW-620 colon): > 100 µM; TGI (A549 NSCLC): > 100 µM; TGI (NCI-H226 lung): > 100 µM; TGI (M14 melanoma): > 100 µM

Q: Which TGI (HCT-116 colon) does the source give for Cc1nc2c(=O)n3c4c(cccc4c2o1)CCC3 here?
A: > 100 µM

Q: What about the TGI (NCI/ADR-RES ovarian) of the same compound?
A: > 100 µM

Q: And the TGI (PC-3 prostate)?
A: > 100 µM

Q: And the TGI (HT29 colon)?
A: > 100 µM

Q: And the TGI (SK-MEL-2 melanoma)?
A: > 100 µM

Q: And the TGI (786-0 renal)?
A: > 100 µM

Q: And the TGI (K-562 leukemia)?
A: > 100 µM

Q: And the TGI (OVCAR-3 ovarian)?
A: > 100 µM

Q: And the TGI (A498 renal)?
A: > 100 µM

Q: What about the TGI (SW-620 colon) of the same compound?
A: > 100 µM

Q: And the TGI (A549 NSCLC)?
A: > 100 µM

Q: What about the TGI (NCI-H226 lung) of the same compound?
A: > 100 µM

Q: And the TGI (M14 melanoma)?
A: > 100 µM
